# In US20050009924A1 (priority 2003, published 2005):
# Assays:
# [1] = system: transcriptional activity of hTERT; experiment: SEAP reporter assay of hTERT expression, PhTERT-SEAP (H1299); assay type: cell-based, human
# How it was run: (§1)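 Read-out: rate of absorbance rise at 405 nm from p-nitrophenyl phosphate (12 mM final) hydrolysis by secreted alkaline phosphatase in heat-treated (65° C, 10 min) culture medium. Drugs at varying amounts were applied for 24 h after a 24 h pre-culture at 37° C.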
# human hepatoma G2 cells = experiment: Cytotoxicity assay (XTT colorimetric), Hep G2; assay type: cell-based; conditions: Homo sapiens, HepG2; 48 h of drug exposure
# [2] = MTT relative viability, PhTERT-SEAP (hTERT-BJ1) cells; conditions: human
# Method: (§2) The tetrazolium reagent (MTT; 3-(4,5-di-methylthiazol)-2,5-diphenyl tetrazolium bromide, USB) was designed to yield a colored formazan upon metabolic reduction by viable cells. Approximately […] cells were plated onto each well of a 96-well plate and incubated in 5% CO2 at 37° C. for 24 h. To assess the in vitro cytotoxicity, each compound was dissolved in DMSO and prepared immediately before the experiments and was diluted into the complete medium before addition to cell cultures. Test compounds were then added to the culture medium for designated various concentrations. After 48 h, an amount of 25 μL of MTT was added to each well, and the samples were incubated at 37° C. for 4 h. A 100 μL solution of lysis buffer containing 20% SDS and 50% N,N-dimethylformamide was added to each well and incubated at 37° C. for another 16 h. The absorbency at 550 nm was measured using an ELISA reader.
# (§3) Non small lung cancer cells H1299 (telomerase positive) were grown in RPMI 1640 media supplemented with 10% fetal bovine serum, 100 units/mL penicillin and 100 mg/mL streptomycin in a humidified atmosphere with 5% CO2 at 37° C. The hTERT immortalized hTERT-BJ1 (BD Biosciences Clontech)^39 were grown in DMEM media supplemented with 10% fetal calf serum, 100 units/mL penicillin and 100 mg/mL streptomycin, 1 mM sodium pyruvate, and 4 mM I-arginine in a humidified atmosphere with 5% CO2 at 37° C. Culture media were changed every 3 days. […] The stable clones derived from H1299 or hTERT-BJ1 were cultured using conditions that are similar to their parental cells.
# [3] = system: iron-induced lipid peroxidation in rat brain homogenates; experiment: Iron-induced lipid peroxidation in rat brain homogenates; conditions: 10 mM; for LP (%) (10 mM): relative percentage of inhibition (Table 1)
# [4] = MTT relative viability, PhTERT-SEAP (H1299) cells; conditions: human
# Method: as §2, §3
# rat glioma C6 cells = experiment: Cytotoxicity assay (XTT colorimetric), C6 cells; assay type: cell-based; conditions: Rattus norvegicus, C6; 48 h of drug exposure
# [5] = system: transcriptional activity of hTERT; experiment: SEAP reporter assay of hTERT expression, PhTERT-SEAP (hTERT-BJ1); assay type: cell-based, human; conditions: Homo sapiens, hTERT-BJ1, read-out: Relative SEAP activity (%)
# How it was run: as §1
# [6] = system: hepatitis B virus transfected hepatoma cell lines, HepG 2.2.15 cells; experiment: Cytotoxicity assay, 2.2.15 cells; assay type: cell-based, human; conditions: Homo sapiens, HepG2.2.15; 48 h of drug exposure
compound,measurement,setting,value
"O=C1c2cccc(SCCO)c2C(=O)c2cccc(SCCO)c21 [IIb, 1,5-Bis(hydroxyethylthio)-anthraquinone]",activity at 2.8 µM,"[1]; Homo sapiens, NCI-H1299, 2.8 μM, H1299, read-out: Relative SEAP activity (%)",97 ± 15.7%
same,activity at 28 µM,"[1]; Homo sapiens, NCI-H1299, 28 μM, H1299, read-out: Relative SEAP activity (%)",76 ± 12.4%
same,activity at 280 µM,"[1]; Homo sapiens, NCI-H1299, 280 μM, H1299, read-out: Relative SEAP activity (%)",45 ± 2.7%
same,IC50,human hepatoma G2 cells,36.4 ± 1.5 µM
same,"viability at 48 h, 2.8 µM",[2],94 ± 9.3%
same,"viability at 48 h, 28 µM",[2],49 ± 2.9%
same,"viability at 48 h, 280 µM",[2],23 ± 2.9%
same,LP (%) (10 mM),[3],16 ± 2.2%
same,"viability at 48 h, 2.8 µM",[4],54 ± 4%
same,"viability at 48 h, 28 µM",[4],29 ± 7%
same,"viability at 48 h, 280 µM",[4],36 ± 7.2%
same,IC50,rat glioma C6 cells,21.5 ± 0.8 µM
same,activity at 2.8 µM,[5]; 2.8 μM,104 ± 15.7%
same,activity at 28 µM,[5]; 28 μM,98 ± 10.9%
same,activity at 280 µM,[5]; 280 μM,71 ± 5%
"O=C1c2cccc(SCCC(O)O)c2C(=O)c2cccc(SCCC(O)O)c21 [IId, 1,5-Bis(dihydroxypropylthio)-anthraquinone]",melting point,,238 to 239 °C
"CCCCNc1cccc2c1C(=O)c1cccc(NCCCC)c1C2=O [IVg, 1,5-Bis(butylamino)anthraquinone]",melting point,,152 to 153 °C
"O=C1c2cccc(NC3CCCC3)c2C(=O)c2cccc(NC3CCCC3)c21 [IVi, 1,5-Bis(cyclopentylamino)anthraquinone]",melting point,,198 to 201 °C
"NCCCCNc1cccc2c1C(=O)c1cccc(NCCCCN)c1C2=O [IVl, 1,5-Bis(aminobutylamino)-anthraquinone]",melting point,,208 to 210 °C
"NCCCCCNc1cccc2c1C(=O)c1cccc(NCCCCCN)c1C2=O [IVm, 1,5-Bis(aminopentylamino)-anthraquinone]",IC50,human hepatoma G2 cells,17.4 ± 0.74 µM
same,melting point,,113 to 115 °C
same,IC50,rat glioma C6 cells,8.36 µM
same,IC50,[6],> 20 µM
"CCCCCCNc1cccc2c1C(=O)c1cccc(NCCCCCC)c1C2=O [IVn, 1,5-Bis(hexylamino)-anthraquinone]",melting point,,142 to 144 °C
"CC1CCCC(Nc2cccc3c2C(=O)c2cccc(NC4CCCC(C)C4C)c2C3=O)C1C (stereo not shown) [IVp, 1,5-Bis(2,3-dimethylcyclohexylamino)-anthraquinone]",melting point,,188 to 190 °C
"O=C1c2cccc(NCc3ccccc3)c2C(=O)c2cccc(NCc3ccccc3)c21 [IVr, 1,5-Bis(benzylamino)-anthraquinone]",IC50,human hepatoma G2 cells,> 20 µM
same,melting point,,218 to 220 °C
same,IC50,rat glioma C6 cells,> 20 µM
same,IC50,[6],> 20 µM
"O=C1c2c(O)ccc(O)c2C(=O)c2c(NCCNCCO)ccc(NCCNCCO)c21 [Mitoxantrone, reference compound]",SEAP/vibility,"[1]; 1.9 μM, PhTERT-SEAP(hTERT-H1299)",0.82
same,SEAP/vibility,"[1]; 19 μM, PhTERT-SEAP(hTERT-H1299)",1.16
same,SEAP/vibility,"[1]; 193 μM, PhTERT-SEAP(hTERT-H1299)",1.21
same,activity at 1.9 µM,"[1]; Homo sapiens, NCI-H1299, 1.9 μM, PhTERT-SEAP(hTERT-H1299), read-out: Relative SEAP activity (%)",81 ± 3.8%
same,activity at 19 µM,"[1]; Homo sapiens, NCI-H1299, 19 μM, PhTERT-SEAP(hTERT-H1299), read-out: Relative SEAP activity (%)",66 ± 4%
same,activity at 193 µM,"[1]; Homo sapiens, NCI-H1299, 193 μM, PhTERT-SEAP(hTERT-H1299), read-out: Relative SEAP activity (%)",47 ± 3.9%
same,IC50,human hepatoma G2 cells,2 ± 0.5 µM
same,"viability at 48 h, 1.9 µM",[2],75 ± 2.9%
same,"viability at 48 h, 19 µM",[2],56 ± 3.1%
same,"viability at 48 h, 193 µM",[2],10 ± 2%
same,Inhibition of LP(10 mM),[3]; mean percent inhibition (Table 3),>100%
same,LP (%) (10 mM),[3],54 ± 1.5%
same,"viability at 48 h, 1.9 µM",[4],100 ± 5.6%
same,"viability at 48 h, 19 µM",[4],57 ± 4.3%
same,"viability at 48 h, 193 µM",[4],39 ± 3.2%
same,IC50,rat glioma C6 cells,0.07 ± 0.01 µM
same,IC50,[6],0.4 µM
same,activity at 1.9 µM,[5]; 1.9 μM,30 ± 5.8%
same,activity at 19 µM,[5]; 19 μM,13 ± 9.2%
same,activity at 193 µM,[5]; 193 μM,4 ± 14.2%
"CCC(=O)Nc1cccc2c1C(=O)c1cccc(NC(=O)CC)c1C2=O [VIIb, 1,5-bis-(methylacetamido)-9,10-anthracenedione]",melting point,,321 °C
"CC(Cl)C(=O)Nc1cccc2c1C(=O)c1cccc(NC(=O)C(C)Cl)c1C2=O (stereo not shown) [VIId, 1,5-bis-(2-chloropropionamido)-9,10-anthracenedione]",melting point,,288 to 289 °C
"NCCCCCNc1cccc2c1C(=O)c1c(NCCCCCN)cccc1C2=O [Vm, 1,8-Bis(aminopentylamino)-anthraquinone]",IC50,human hepatoma G2 cells,0.09 µM
same,melting point,,115 to 116 °C
same,IC50,rat glioma C6 cells,0.11 ± 0.01 µM
same,IC50,[6],1.29 µM
